Results published in US10710978B2, “STK4 inhibitors for treatment of hematologic malignancies” (Dana-Farber Cancer Institute, Inc., priority 2015, dated 2020).
Where two headings read alike, the source gives them in different places.

What was measured:
Assay in all cases: KiNativ assay
Type in all cases: binding
Settings in all cases: H929 live cell
[1] = target: JAK1 domain2 (Homo sapiens (Human), UniProt P23458)
Description: (§1) Biochemical IC50s of the compounds of the present disclosure against various kinases were measured in a KiNativ assay. Compounds were screened in duplicate at 10 μM in H929 live cell. IC50 was measured via Mass spectroscopy (MS).

[2] = target: NEK3 (Homo sapiens (Human), UniProt P51956)
Description: as §1

[3] = system: MST4, YSK1
Description: as §1

[4] = system: AurA, AurB, AurC
Description: as §1

[5] = target: NEK4 (Homo sapiens (Human), UniProt P51957)
Description: as §1

[6] = target: CDK2 (Homo sapiens (Human), UniProt P24941)
Description: as §1

[7] = target: JAK1 domain1 (Homo sapiens (Human), UniProt P23458)
Sequence of JAK1 domain1 (P23458 whole entry, the tested form may be a part): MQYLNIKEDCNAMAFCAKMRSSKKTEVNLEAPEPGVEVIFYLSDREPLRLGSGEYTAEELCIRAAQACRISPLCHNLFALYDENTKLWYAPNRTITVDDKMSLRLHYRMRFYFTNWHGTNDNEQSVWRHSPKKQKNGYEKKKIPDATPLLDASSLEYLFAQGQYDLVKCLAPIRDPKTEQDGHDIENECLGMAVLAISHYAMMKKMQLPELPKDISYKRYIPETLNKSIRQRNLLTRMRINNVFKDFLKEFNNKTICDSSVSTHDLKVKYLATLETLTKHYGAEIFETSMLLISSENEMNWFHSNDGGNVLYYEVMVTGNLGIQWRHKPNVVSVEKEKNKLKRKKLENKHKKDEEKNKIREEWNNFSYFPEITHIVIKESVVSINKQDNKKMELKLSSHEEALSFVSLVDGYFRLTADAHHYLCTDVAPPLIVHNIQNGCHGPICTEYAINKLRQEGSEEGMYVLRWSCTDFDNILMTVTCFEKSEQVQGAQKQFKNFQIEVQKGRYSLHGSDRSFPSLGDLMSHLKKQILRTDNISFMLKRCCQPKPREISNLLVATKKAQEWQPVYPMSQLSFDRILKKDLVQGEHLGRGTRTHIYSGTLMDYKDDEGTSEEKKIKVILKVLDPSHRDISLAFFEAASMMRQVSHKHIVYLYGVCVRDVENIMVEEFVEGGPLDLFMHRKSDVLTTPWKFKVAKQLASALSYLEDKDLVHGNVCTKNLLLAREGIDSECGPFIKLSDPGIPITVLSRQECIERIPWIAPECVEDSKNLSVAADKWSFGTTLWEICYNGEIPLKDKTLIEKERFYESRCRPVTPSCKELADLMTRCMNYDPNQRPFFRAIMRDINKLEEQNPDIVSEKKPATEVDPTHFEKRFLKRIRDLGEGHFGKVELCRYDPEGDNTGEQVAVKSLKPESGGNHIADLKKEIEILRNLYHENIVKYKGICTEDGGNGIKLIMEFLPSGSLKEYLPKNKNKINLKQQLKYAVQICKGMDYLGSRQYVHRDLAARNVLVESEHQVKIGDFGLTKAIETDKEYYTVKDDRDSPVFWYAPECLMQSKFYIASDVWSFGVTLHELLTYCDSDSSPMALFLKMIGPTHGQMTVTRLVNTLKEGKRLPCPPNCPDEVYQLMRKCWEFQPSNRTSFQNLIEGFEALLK
Description: as §1

[8] = target: PKD3 (Homo sapiens (Human), UniProt O94806)
Description: as §1

[9] = target: IKKb (Homo sapiens (Human), UniProt O14920)
Sequence of IKKb (O14920 whole entry): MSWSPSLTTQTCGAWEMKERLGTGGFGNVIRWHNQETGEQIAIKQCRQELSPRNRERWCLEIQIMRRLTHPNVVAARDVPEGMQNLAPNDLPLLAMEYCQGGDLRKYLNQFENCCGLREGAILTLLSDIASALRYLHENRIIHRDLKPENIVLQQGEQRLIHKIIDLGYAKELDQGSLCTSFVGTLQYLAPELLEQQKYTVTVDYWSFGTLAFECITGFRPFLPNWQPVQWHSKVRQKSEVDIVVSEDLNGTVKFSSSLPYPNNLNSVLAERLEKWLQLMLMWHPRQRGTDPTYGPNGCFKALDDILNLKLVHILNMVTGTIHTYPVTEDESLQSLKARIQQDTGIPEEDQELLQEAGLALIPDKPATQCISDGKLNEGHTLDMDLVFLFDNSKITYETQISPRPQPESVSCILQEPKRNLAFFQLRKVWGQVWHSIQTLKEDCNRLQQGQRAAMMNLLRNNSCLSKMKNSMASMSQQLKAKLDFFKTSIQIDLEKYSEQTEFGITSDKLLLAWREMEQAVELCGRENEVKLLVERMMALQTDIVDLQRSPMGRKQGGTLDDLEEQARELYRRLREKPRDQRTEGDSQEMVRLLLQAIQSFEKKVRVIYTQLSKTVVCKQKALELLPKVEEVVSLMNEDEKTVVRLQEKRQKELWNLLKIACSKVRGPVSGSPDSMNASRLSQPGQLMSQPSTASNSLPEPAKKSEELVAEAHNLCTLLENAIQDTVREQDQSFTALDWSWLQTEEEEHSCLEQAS
Description: as §1

[10] = target: LOK (Homo sapiens (Human), UniProt O94804)
Description: as §1

[11] = target: LKB1 (Homo sapiens (Human), UniProt Q15831)
Description: as §1

[12] = target: IRE1 (Homo sapiens (Human), UniProt O75460)
Description: as §1

[13] = target: NEK1 (Homo sapiens (Human), UniProt Q96PY6)
Description: as §1

[14] = target: CSK (Homo sapiens (Human), UniProt P41240)
Description: as §1

[15] = target: RSK2 domain2 (Homo sapiens (Human), UniProt P51812)
Description: as §1

[16] = system: ZC1/HGK, ZC2/TNIK, ZC3/MINK
Description: as §1

[17] = target: NuaK1 (Homo sapiens (Human), UniProt O60285)
Sequence of NuaK1 (O60285 whole entry): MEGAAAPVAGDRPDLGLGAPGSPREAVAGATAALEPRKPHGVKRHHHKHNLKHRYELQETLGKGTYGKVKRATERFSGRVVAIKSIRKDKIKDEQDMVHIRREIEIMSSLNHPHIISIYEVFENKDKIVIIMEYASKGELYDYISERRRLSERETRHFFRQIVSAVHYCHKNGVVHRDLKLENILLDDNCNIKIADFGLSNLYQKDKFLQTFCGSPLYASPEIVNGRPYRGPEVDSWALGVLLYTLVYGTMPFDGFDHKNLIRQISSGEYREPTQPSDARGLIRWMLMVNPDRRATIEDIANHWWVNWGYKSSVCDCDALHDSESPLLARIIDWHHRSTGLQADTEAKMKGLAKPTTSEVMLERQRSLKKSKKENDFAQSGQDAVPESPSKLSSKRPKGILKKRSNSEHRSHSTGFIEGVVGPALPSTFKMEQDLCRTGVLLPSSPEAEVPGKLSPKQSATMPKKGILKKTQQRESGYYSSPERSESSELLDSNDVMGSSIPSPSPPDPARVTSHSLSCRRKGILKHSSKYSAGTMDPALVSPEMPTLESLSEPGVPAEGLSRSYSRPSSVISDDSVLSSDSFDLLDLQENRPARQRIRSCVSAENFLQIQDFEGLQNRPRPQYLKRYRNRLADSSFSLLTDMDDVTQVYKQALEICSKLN
Description: as §1

[18] = system: MAP3K2, MAP3K3
Description: as §1

[19] = target: CK1g2 (Homo sapiens (Human), UniProt P78368)
Sequence of CK1g2 (P78368 whole entry): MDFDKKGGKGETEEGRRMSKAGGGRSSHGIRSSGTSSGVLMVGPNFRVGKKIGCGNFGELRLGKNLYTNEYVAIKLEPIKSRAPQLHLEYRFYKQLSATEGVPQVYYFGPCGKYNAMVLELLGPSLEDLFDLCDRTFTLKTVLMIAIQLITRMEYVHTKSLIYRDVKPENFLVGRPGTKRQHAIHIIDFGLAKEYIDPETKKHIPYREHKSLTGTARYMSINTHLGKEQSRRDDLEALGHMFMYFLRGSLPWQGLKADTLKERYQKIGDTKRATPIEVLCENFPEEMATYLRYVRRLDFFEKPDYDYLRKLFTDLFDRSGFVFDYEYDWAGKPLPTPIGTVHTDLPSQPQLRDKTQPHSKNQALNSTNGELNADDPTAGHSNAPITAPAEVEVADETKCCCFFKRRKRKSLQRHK
Description: as §1

[20] = target: ULK1 (Homo sapiens (Human), UniProt O75385)
Sequence of ULK1 (O75385 whole entry): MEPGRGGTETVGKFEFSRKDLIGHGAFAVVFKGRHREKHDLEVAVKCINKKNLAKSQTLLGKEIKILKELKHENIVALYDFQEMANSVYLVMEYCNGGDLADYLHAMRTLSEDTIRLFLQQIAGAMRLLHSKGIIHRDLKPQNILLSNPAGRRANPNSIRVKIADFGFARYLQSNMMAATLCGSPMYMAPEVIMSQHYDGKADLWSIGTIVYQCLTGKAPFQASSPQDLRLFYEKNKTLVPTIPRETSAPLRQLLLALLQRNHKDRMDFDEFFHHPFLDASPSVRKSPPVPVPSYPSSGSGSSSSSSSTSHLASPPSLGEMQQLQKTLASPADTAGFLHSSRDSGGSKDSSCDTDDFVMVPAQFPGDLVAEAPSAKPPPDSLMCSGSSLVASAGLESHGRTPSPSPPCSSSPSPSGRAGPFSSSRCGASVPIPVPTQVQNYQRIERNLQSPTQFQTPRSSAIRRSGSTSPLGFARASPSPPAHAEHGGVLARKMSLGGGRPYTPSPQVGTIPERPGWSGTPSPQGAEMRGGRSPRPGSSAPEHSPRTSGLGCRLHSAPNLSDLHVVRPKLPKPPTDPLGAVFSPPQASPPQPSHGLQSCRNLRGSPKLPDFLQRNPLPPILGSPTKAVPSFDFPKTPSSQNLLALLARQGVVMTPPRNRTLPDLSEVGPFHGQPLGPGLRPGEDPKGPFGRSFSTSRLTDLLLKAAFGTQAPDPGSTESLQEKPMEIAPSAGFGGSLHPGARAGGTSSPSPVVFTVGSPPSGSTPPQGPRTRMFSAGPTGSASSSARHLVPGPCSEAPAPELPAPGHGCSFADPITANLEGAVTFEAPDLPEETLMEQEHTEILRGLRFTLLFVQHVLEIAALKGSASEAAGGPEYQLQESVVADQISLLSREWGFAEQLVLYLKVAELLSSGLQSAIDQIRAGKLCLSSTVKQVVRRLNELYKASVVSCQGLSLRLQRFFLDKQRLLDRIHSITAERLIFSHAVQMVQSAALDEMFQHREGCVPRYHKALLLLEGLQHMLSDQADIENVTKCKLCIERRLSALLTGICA
Description: as §1

[21] = target: PHKg2 (Homo sapiens (Human), UniProt P15735)
Description: as §1

[22] = target: NDR1 (Homo sapiens (Human), UniProt Q15208)
Sequence of NDR1 (Q15208 whole entry): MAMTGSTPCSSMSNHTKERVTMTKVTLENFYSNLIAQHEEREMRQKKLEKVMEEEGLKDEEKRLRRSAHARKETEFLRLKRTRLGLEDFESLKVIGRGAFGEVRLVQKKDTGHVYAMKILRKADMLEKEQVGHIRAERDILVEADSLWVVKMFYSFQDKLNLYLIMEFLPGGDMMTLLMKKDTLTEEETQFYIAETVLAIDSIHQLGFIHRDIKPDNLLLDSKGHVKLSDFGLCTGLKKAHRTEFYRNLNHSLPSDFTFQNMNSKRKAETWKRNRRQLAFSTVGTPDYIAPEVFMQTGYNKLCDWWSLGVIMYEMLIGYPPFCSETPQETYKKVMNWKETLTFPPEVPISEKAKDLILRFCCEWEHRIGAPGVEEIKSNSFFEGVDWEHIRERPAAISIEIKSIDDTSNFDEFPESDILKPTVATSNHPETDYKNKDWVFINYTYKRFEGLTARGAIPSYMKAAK
Description: as §1

[23] = target: RSK2 domain1 (Homo sapiens (Human), UniProt P51812)
Description: as §1

[24] = system: IKKe, TBK1
Description: as §1

[25] = target: MAP3K5 (Homo sapiens (Human), UniProt Q99683)
Description: as §1

[26] = target: SNRK (Homo sapiens (Human), UniProt Q9NRH2)
Description: as §1

[27] = target: PIP4K2A (Homo sapiens (Human), UniProt P48426)
Sequence of PIP4K2A (P48426 whole entry): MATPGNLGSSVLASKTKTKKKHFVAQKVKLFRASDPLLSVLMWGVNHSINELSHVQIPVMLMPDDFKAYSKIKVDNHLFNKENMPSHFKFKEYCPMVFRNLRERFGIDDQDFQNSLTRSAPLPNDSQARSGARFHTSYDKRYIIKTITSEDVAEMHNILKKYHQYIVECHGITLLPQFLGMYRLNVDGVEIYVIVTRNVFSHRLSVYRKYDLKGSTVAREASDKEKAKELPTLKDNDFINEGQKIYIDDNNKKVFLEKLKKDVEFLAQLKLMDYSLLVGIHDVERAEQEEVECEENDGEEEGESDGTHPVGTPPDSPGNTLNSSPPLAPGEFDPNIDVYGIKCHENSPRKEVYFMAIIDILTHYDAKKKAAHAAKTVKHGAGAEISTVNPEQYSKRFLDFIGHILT
Description: as §1

[28] = system: TAO1, TAO3
Description: as §1

[29] = target: NDR2 (Homo sapiens (Human), UniProt Q9Y2H1)
Description: as §1

[30] = target: CaMK1d (Homo sapiens (Human), UniProt Q8IU85)
Description: as §1

[31] = target: EphB2 (Homo sapiens (Human), UniProt P29323)
Description: as §1

[32] = target: GSK3B (Homo sapiens (Human), UniProt P49841)
Description: as §1

[33] = target: PIK3C3 (Homo sapiens (Human), UniProt Q8NEB9)
Description: as §1

[34] = range class, read-out: % inhibition

Sequence of JAK1 domain2 (P23458 whole entry, the tested form may be a part): as the sequence (P23458 whole entry, the tested form may be a part) above

Nc1ncc(-c2cccc([N+](=O)[O-])c2F)cc1-c1ccc2c(c1)CCNC2=O [Compound I-9, 6-(2-amino-5-(2-fluoro-3-nitrophenyl)pyridin-3-yl)-3,4-dihydroisoquinolin-1(2H)-one]
inhibition at 10 µM ([1]; read-out: % inhibition (range)): 0%
inhibition at 10 µM ([1]; read-out: inhibition (10 μM)): -4.9%
inhibition at 10 µM ([2]; read-out: % inhibition (range)): 0%
inhibition at 10 µM ([2]; read-out: inhibition (10 μM)): -42.8%
% inhibition (range) ([3]; 10 μM): 0.0%
inhibition (10 μM) [3]: 33.0%
% inhibition (range) ([4]; 10 μM): 50-75%
inhibition (10 μM) [4]: 66.2%
inhibition at 10 µM ([5]; read-out: % inhibition (range)): 50 to 75%
inhibition at 10 µM ([5]; read-out: inhibition (10 μM)): 67%
inhibition at 10 µM ([6]; read-out: % inhibition (range)): 50 to 75%
inhibition at 10 µM ([6]; read-out: inhibition (10 μM)): 68.5%
inhibition at 10 µM ([7]; read-out: % inhibition (range)): 0%
inhibition at 10 µM ([7]; read-out: inhibition (10 μM)): -44.3%
inhibition at 10 µM ([8]; read-out: % inhibition (range)): 50 to 75%
inhibition at 10 µM ([8]; read-out: inhibition (10 μM)): 74.2%
inhibition at 10 µM ([9]; read-out: % inhibition (range)): 0%
inhibition at 10 µM ([9]; read-out: inhibition (10 μM)): -15%
inhibition at 10 µM ([10]; read-out: % inhibition (range)): > 90%
inhibition at 10 µM ([10]; read-out: inhibition (10 μM)): 98.5%
inhibition at 10 µM ([11]; read-out: % inhibition (range)): 0%
inhibition at 10 µM ([11]; read-out: inhibition (10 μM)): 4.5%
inhibition at 10 µM ([12]; read-out: % inhibition (range)): 0%
inhibition at 10 µM ([12]; read-out: inhibition (10 μM)): -50.1%
inhibition at 10 µM ([13]; read-out: % inhibition (range)): 0%
inhibition at 10 µM ([13]; read-out: inhibition (10 μM)): -34%
inhibition at 10 µM ([14]; read-out: % inhibition (range)): 0%
inhibition at 10 µM ([14]; read-out: inhibition (10 μM)): -4.5%
inhibition at 10 µM ([15]; read-out: % inhibition (range)): 0%
inhibition at 10 µM ([15]; read-out: inhibition (10 μM)): -23.2%
% inhibition (range) ([16]; 10 μM): >90%
inhibition (10 μM) [16]: 96.7%
inhibition (10 μM) [17]: >90%
inhibition at 10 µM ([17]; read-out: % inhibition (range)): > 90%
inhibition at 10 µM ([17]; read-out: inhibition (10 μM)): 91%
% inhibition (range) ([18]; 10 μM): 35-50%
inhibition (10 μM) [18]: 43.2%
inhibition at 10 µM ([19]; read-out: % inhibition (range)): > 90%
inhibition at 10 µM ([19]; read-out: inhibition (10 μM)): > 90%
inhibition at 10 µM ([20]; read-out: % inhibition (range)): 0%
inhibition at 10 µM ([20]; read-out: inhibition (10 μM)): -19.6%
inhibition at 10 µM ([21]; read-out: % inhibition (range)): 0%
inhibition at 10 µM ([21]; read-out: inhibition (10 μM)): -30.7%
inhibition at 10 µM ([22]; read-out: % inhibition (range)): 0%
inhibition at 10 µM ([22]; read-out: inhibition (10 μM)): 3.5%
inhibition at 10 µM ([23]; read-out: % inhibition (range)): 50 to 75%
inhibition at 10 µM ([23]; read-out: inhibition (10 μM)): 69.9%
% inhibition (range) ([24]; 10 μM): 0.0%
inhibition (10 μM) [24]: 21.2%
inhibition at 10 µM ([25]; read-out: % inhibition (range)): 0%
inhibition at 10 µM ([25]; read-out: inhibition (10 μM)): 30.6%
inhibition at 10 µM ([26]; read-out: % inhibition (range)): 35 to 50%
inhibition at 10 µM ([26]; read-out: inhibition (10 μM)): 43.7%
inhibition at 10 µM ([27]; read-out: % inhibition (range)): 0%
inhibition at 10 µM ([27]; read-out: inhibition (10 μM)): 10.2%
% inhibition (range) ([28]; 10 μM): 50-75%
inhibition (10 μM) [28]: 67.5%
inhibition at 10 µM ([29]; read-out: % inhibition (range)): 0%
inhibition at 10 µM ([29]; read-out: inhibition (10 μM)): -9.5%
inhibition at 10 µM ([30]; read-out: % inhibition (range)): 0%
inhibition at 10 µM ([30]; read-out: inhibition (10 μM)): -2.8%
inhibition at 10 µM ([31]; read-out: % inhibition (range)): 0%
inhibition at 10 µM ([31]; read-out: inhibition (10 μM)): -25%
inhibition at 10 µM ([32]; read-out: % inhibition (range)): > 90%
inhibition at 10 µM ([32]; read-out: inhibition (10 μM)): 97.2%
inhibition at 10 µM ([33]; read-out: inhibition (10 μM)): 51.2%

Nc1ncc(-c2ccc(NS(=O)(=O)C3CC3)cc2OC2CCCCC2)cc1-c1ccc2c(c1)CCNC2=O [Compound I-65, N-(4-(6-amino-5-(1-oxo-1,2,3,4-tetrahydroisoquinolin-6-yl)pyridin-3-yl)-3-(cyclohexyloxy)phenyl) cyclopropanesulfonamide]
inhibition at 10 µM [1, 34]: 0%
inhibition at 10 µM ([1]; read-out: inhibition (10 μM)): 10.1%
inhibition at 10 µM [2, 34]: 0%
inhibition at 10 µM ([2]; read-out: inhibition (10 μM)): -18.4%
% inhibition ([3]; 10 μM, range class): 35-40%
inhibition (10 μM) [3]: 46.3%
% inhibition ([4]; 10 μM, range class): 35-40%
inhibition (10 μM) [4]: 42.9%
inhibition at 10 µM [5, 34]: 0%
inhibition at 10 µM ([5]; read-out: inhibition (10 μM)): 23.7%
inhibition at 10 µM [6, 34]: 0%
inhibition at 10 µM ([6]; read-out: inhibition (10 μM)): 21.6%
inhibition at 10 µM [7, 34]: 0%
inhibition at 10 µM ([7]; read-out: inhibition (10 μM)): 2.1%
inhibition at 10 µM [8, 34]: 0%
inhibition at 10 µM ([8]; read-out: inhibition (10 μM)): -24.2%
inhibition at 10 µM [9, 34]: 0%
inhibition at 10 µM ([9]; read-out: inhibition (10 μM)): -36%
inhibition at 10 µM [10, 34]: > 90%
inhibition at 10 µM ([10]; read-out: inhibition (10 μM)): 98.7%
inhibition at 10 µM [11, 34]: 0%
inhibition at 10 µM ([11]; read-out: inhibition (10 μM)): 27.4%
inhibition at 10 µM [12, 34]: 0%
inhibition at 10 µM ([12]; read-out: inhibition (10 μM)): -6.3%
inhibition at 10 µM [13, 34]: 0%
inhibition at 10 µM ([13]; read-out: inhibition (10 μM)): 9.3%
inhibition at 10 µM [14, 34]: 0%
inhibition at 10 µM ([14]; read-out: inhibition (10 μM)): 0.1%
inhibition at 10 µM [15, 34]: 0%
inhibition at 10 µM ([15]; read-out: inhibition (10 μM)): 7.2%
% inhibition ([16]; 10 μM, range class): >90%
inhibition (10 μM) [16]: 96.6%
inhibition (10 μM) [17]: 61.5%
inhibition at 10 µM [17, 34]: 50 to 75%
inhibition at 10 µM ([17]; read-out: inhibition (10 μM)): 66.8%
% inhibition ([18]; 10 μM, range class): 0.0%
inhibition (10 μM) [18]: 23.3%
inhibition at 10 µM [19, 34]: 50 to 75%
inhibition at 10 µM ([19]; read-out: inhibition (10 μM)): 74.5%
inhibition at 10 µM [20, 34]: 0%
inhibition at 10 µM ([20]; read-out: inhibition (10 μM)): 22.2%
inhibition at 10 µM [21, 34]: 0%
inhibition at 10 µM ([21]; read-out: inhibition (10 μM)): -64%
inhibition at 10 µM [22, 34]: 0%
inhibition at 10 µM ([22]; read-out: inhibition (10 μM)): -14.5%
inhibition at 10 µM [23, 34]: 75 to 90%
inhibition at 10 µM ([23]; read-out: inhibition (10 μM)): 79.4%
% inhibition ([24]; 10 μM, range class): 75-90%
inhibition (10 μM) [24]: 81.8%
inhibition at 10 µM [25, 34]: 0%
inhibition at 10 µM ([25]; read-out: inhibition (10 μM)): -12.4%
inhibition at 10 µM [26, 34]: 0%
inhibition at 10 µM ([26]; read-out: inhibition (10 μM)): 1.1%
inhibition at 10 µM [27, 34]: 0%
inhibition at 10 µM ([27]; read-out: inhibition (10 μM)): -4.6%
% inhibition ([28]; 10 μM, range class): 0.0%
inhibition (10 μM) [28]: 14.4%
inhibition at 10 µM [29, 34]: 0%
inhibition at 10 µM ([29]; read-out: inhibition (10 μM)): -8.7%
inhibition at 10 µM [30, 34]: 0%
inhibition at 10 µM ([30]; read-out: inhibition (10 μM)): 0.4%
inhibition at 10 µM [31, 34]: 0%
inhibition at 10 µM ([31]; read-out: inhibition (10 μM)): 20.3%
inhibition at 10 µM [32, 34]: > 90%
inhibition at 10 µM ([32]; read-out: inhibition (10 μM)): 90%
inhibition at 10 µM [33, 34]: 0%
inhibition at 10 µM ([33]; read-out: inhibition (10 μM)): -15%
